Source: ChEMBL document CHEMBL1146218, “Highly brominated mono- and bis-phenols from the marine red alga Symphyocladia latiuscula with radical-scavenging activity” (J Nat Prod, 2007)

Experiment: DPPH radical scavenging activity
Format: functional

Row | Structure (SMILES) | IC50 [µM]
1 | Cc1cc(C(C)(C)C)c(O)c(C(C)(C)C)c1 [BUTYLATED HYDROXYTOLUENE] | 81.8
2 | CS(=O)(=O)Cc1c(Br)c(O)c(O)c(Br)c1Br | 24
3 | O=Cc1c(Br)c(O)c(O)c(Br)c1Br | 24.7
4 | Oc1c(O)c(Br)c(COCc2c(Br)c(O)c(O)c(Br)c2Br)c(Br)c1Br | 8.5

The remaining lines, values ahead:

Row | IC50 [µM] | Structure (SMILES)
5 | 14 | Cc1c(Br)c(O)c(O)c(Br)c1Br
6 | 18.5 | O=C1CCCN1Cc1c(Br)c(O)c(O)c(Br)c1Br
7 | 8.1 | Oc1c(O)c(Br)c(Cc2c(Br)c(O)c(O)c(Br)c2Br)c(Br)c1Br
8 | 10.5 | COCc1c(Br)c(O)c(O)c(Br)c1Cc1c(Br)c(O)c(O)c(Br)c1Br
9 | 10.2 | Oc1c(O)c(Br)c(CCc2c(Br)c(O)c(O)c(Br)c2Br)c(Br)c1Br
10 | 15.5 | COCc1c(Br)c(O)c(O)c(Br)c1Br
